Measurements published in US20070270418A1, “Inhibitors of P38 and Methods of Using the Same” (priority 2003, published 2007).
Like-named read-outs stand apart in the source and are kept apart here.

Legend:
p38α = molecular target: T1, p38α (Homo sapiens, UniProt Q16539); assay: p38 MAP Kinase assay, ATF2 phosphorylation (ELISA); format: biochemical; settings: 40 μM ATP
T1 construct: p38 MAP Kinases are recombinant human full-length proteins with an amino-terminal GST fusion; GST (N); purchased Upstate (Charlottesville, Va.); host or cells: E. coli
How it was run: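 Recombinant full-length GST-tagged human p38α (6 ng) pre-incubated 15 min at room temperature with compound, then reacted 30 min at 37° C with 40 μM ATP and 1.25 μM GST-ATF2 (aa 19-96) in HEPES pH 7.5/MgCl2 buffer. EDTA stop; ATF2 Thr69 phosphorylation measured by anti-phospho-ATF2 ELISA at 450 nm.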

[1] = test system: TNFα release from THP-1 cells; assay: TNFα release from LPS-stimulated THP-1 cells; format: cell-based
Description: Compounds of the invention are screened for the ability to inhibit TNFα and IL-1β release from THP-1 cells stimulated with lipopolysaccharide (LPS) in vitro. The ability of compounds to inhibit TNFα and IL-1β release in this in vitro assay is correlated with the inhibition of p38 activity and TNFα and IL-1β expression in vivo, and is therefore an indicator of potential in vivo therapeutic activity (Lee J. C. et al, Ann. N.Y. Acad. Sci. 696: 149-170, 1993 and Nature, 372: 739-746, 1994).
THP-1 cells from ATCC (TIB202) are maintained at 37° C., 5% CO2 in RPMI 1640 media (MediaTech, Herndon, Va.) containing 4.5 g/L glucose, supplemented with 10% fetal bovine serum, 1% penicillin/streptomycin and 50 μM β-mercaptoethanol.
Test compounds are initially dissolved in RPMI media with 1% DMSO (v/v). Compounds are then serially diluted in RPMI media for all subsequent dilutions. The assay is performed under sterile conditions. THP-1 cells at a culture density of 6-8×10^5 cells/ml are collected and resuspended in the RPMI media at 10^6 cells/ml. 100 μl of resuspended cells are added to each well, which contain 100 μl of a test compound. Test compounds are prepared at twice the final concentration. Final DMSO concentration is no more than 0.5% (v/v). Cells are preincubated with compound for 30 minutes at 37° C., 5% CO2 prior to stimulation with lipopolysaccharide (LPS) (Sigma L-2880, 4 mg/ml stock in PBS). The final LPS concentration in each well is 10 or 30 μg/ml for TNFα and IL-1β release, respectively. Unstimulated control cell suspensions receive PBS vehicle only. Cell mixtures are incubated for 18 or 48 hours for TNFα and IL-1β release, respectively. 150 μl of supernatants are taken and transferred to a fresh plate and stored at −20° C. until further analysis.

[2] = Homo sapiens, THP-1, 18 h, LPS 10 μg/ml, 18 hours, read-out: TNFα (THP-1) IC50

T1 sequence (Q16539 whole entry, the tested form may be a part): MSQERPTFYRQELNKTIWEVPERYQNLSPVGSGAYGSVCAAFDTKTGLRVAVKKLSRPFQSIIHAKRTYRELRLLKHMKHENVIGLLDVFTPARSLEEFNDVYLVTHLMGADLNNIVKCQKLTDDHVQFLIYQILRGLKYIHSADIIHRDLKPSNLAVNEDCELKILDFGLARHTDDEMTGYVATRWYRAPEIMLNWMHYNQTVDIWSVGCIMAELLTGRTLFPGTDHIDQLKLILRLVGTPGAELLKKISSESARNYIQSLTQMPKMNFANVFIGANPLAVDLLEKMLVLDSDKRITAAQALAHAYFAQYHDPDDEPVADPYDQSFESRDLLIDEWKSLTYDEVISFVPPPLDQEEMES

IC50 (p38α) [nM] | IC50 [1, 2] [nM] | IC50 ([1]; LPS 10 μg/ml, 18 hours, read-out: TNFα (THP-1) IC50) [nM] | SMILES | IC50 ([1]; Homo sapiens, THP-1, 18 h, read-out: TNFα (THP-1) IC50 (nM)) [nM]
7.57 | 20 |  | CC(C)[C@H](CO)Nc1nccc(-c2c(-c3ccc(F)cc3)nc3occn23)n1 [CIII] | 
30.5 | 19.8 |  | CCC(CO)(CO)Nc1nccc(-c2c(-c3ccc(F)cc3)nc3occn23)n1 [CIX] | 
3.11 | 11.7 |  | CCC[C@@H](CO)Nc1nccc(-c2c(-c3ccc(F)cc3)nc3occn23)n1 [CVIII] | 
5.2 | 30.6 |  | CCC[C@H](CO)Nc1nccc(-c2c(-c3ccc(F)cc3)nc3occn23)n1 [CVI] | 
3.09 | 8.67 |  | C[C@H](CO)Nc1nccc(-c2c(-c3ccc(F)cc3)nc3occn23)n1 [CV] | 
6.19 | 8.38 |  | CC(CO)Nc1nccc(-c2c(-c3ccc(F)cc3)nc3sccn23)n1 (centres unmarked) [CXCIII] | 
11.2 | 65.9 |  | CCCC[C@H](CO)Nc1nccc(-c2c(-c3ccc(F)cc3)nc3occn23)n1 [CXI] | 
2.91 | 26.3 |  | CC(C)(CO)Nc1nccc(-c2c(-c3ccc(F)cc3)nc3occn23)n1 [CXVIII] | 
59.6 | 67.7 |  | CC(CN(C)C)Nc1nccc(-c2c(-c3ccc(F)cc3)nc3occn23)n1 (centres unmarked) [CXXIV] | 
29.4 | 86.1 |  | C[C@@H](Nc1nccc(-c2c(-c3ccc(F)cc3)nc3occn23)n1)C(N)=O [CXXVI] | 
0.893 | 3.19 |  | CC(C)Nc1nccc(-c2c(-c3ccc(F)cc3)nc3occn23)n1 [C] | 
30.2 | 11.8 |  | OCC1(Nc2nccc(-c3c(-c4ccc(F)cc4)nc4occn34)n2)CCCC1 [LIV] | 
8.06 | 94.4 |  | Fc1ccc(-c2nc3occn3c2-c2ccnc(NCCc3ccncc3)n2)cc1 [LI] | 
14 | 96.9 |  | Fc1ccc(-c2nc3occn3c2-c2ccnc(NCCCn3ccnc3)n2)cc1 [LVI] | 
23.1 | 25 |  | OCCCCCCNc1nccc(-c2c(-c3ccc(F)cc3)nc3occn23)n1 [LV] | 
38.5 | 87.4 |  | C[C@H](Nc1nccc(-c2c(-c3ccc(F)cc3)nc3occn23)n1)[C@H](O)c1ccccc1 [LXIII] | 
453 | 258 |  | O=C1OCC[C@H]1Nc1nccc(-c2c(-c3ccc(F)cc3)nc3occn23)n1 [LXII] | 

The next lines start with the compound.

SMILES | IC50 (p38α) [nM] | IC50 [1, 2] [nM] | IC50 ([1]; LPS 10 μg/ml, 18 hours, read-out: TNFα (THP-1) IC50) [nM] | IC50 ([1]; Homo sapiens, THP-1, 18 h, read-out: TNFα (THP-1) IC50 (nM)) [nM]
CC(C)(C)OC(=O)N1CCC(Nc2nccc(-c3c(-c4ccc(F)cc4)nc4sccn34)n2)CC1 [CCXXXIII, 4-{4-[6-(4-fluorophenyl)-imidazo[2,1-b]thiazol-5-yl]-pyrimidin-2-ylamino}-piperidine-1-carboxylic acid tert-butyl ester] | 2.24 | 76.9 |  | 
CC(C)[C@H](CO)Nc1nccc(-c2c(-c3ccc(F)cc3)nc3sccn23)n1 [CCXXXII] | 2.06 | 11.1 |  | 
Oc1ccc(CCNc2nccc(-c3c(-c4ccc(F)cc4)nc4sccn34)n2)cc1 [CCXXXIX] | 5.82 | 21 |  | 
CC(C)[C@@H](CO)Nc1nccc(-c2c(-c3ccc(F)cc3)nc3sccn23)n1 [CCXXXI] | 1.13 | 5.67 |  | 
CC(C)(C)OC(=O)N1CCC(CNc2nccc(-c3c(-c4ccc(F)cc4)nc4sccn34)n2)CC1 [CCXXXVIII] | 87.6 | 162 |  | 
CC(C)(C)OC(=O)N1CCCCC1CNc1nccc(-c2c(-c3ccc(F)cc3)nc3sccn23)n1 (centres unmarked) [CCXXXVII] | 107 | 113 |  | 
CC(C)(C)OC(=O)N1CCCC(CNc2nccc(-c3c(-c4ccc(F)cc4)nc4sccn34)n2)C1 (centres unmarked) [CCXXXVI] | 81.8 | 162 |  | 
CC[C@H](CO)Nc1nccc(-c2c(-c3ccc(F)cc3)nc3sccn23)n1 [CCXXXV] | 2.08 | 2.95 |  | 
CC(C)(CO)CNc1nccc(-c2c(-c3ccc(F)cc3)nc3sccn23)n1 [CCXX] | 1.56 | 2.41 |  | 
COc1cccc(-c2nc3sccn3c2-c2ccnc(N[C@H](CO)C(C)C)n2)c1 [CC] | 112 | 93.8 |  | 
C[C@H](O)[C@H](CO)Nc1nccc(-c2c(-c3ccc(F)cc3)nc3occn23)n1 [CIV] | 8.62 |  |  | 6
CCOc1nccc(-c2c(-c3ccc(F)cc3)nc3sccn23)n1 [CLI] | 122 | 284 |  | 
COc1nccc(-c2c(-c3ccc(F)cc3)nc3sccn23)n1 [CLV] | 286 | 402 |  | 
CC(C)C(CO)Nc1nccc(-c2c(-c3ccc(F)cc3)nc3sccn23)n1 (centres unmarked) [CLXXII] | 4.67 | 48.1 |  | 
COC(=O)[C@@H](CC(C)C)Nc1nccc(-c2c(-c3ccc(F)cc3)nc3sccn23)n1 [CLXXI] | 14.9 | 3970 |  | 
OC[C@H](Cc1ccccc1)Nc1nccc(-c2c(-c3ccc(F)cc3)nc3sccn23)n1 [CLXXXI] | 176 | 138 |  | 
CCC(CO)(CO)Nc1nccc(-c2c(-c3ccc(F)cc3)nc3sccn23)n1 [CLXXX] | 80.8 | 57.4 |  | 
Fc1ccc(-c2nc3sccn3c2-c2ccnc(OCC3CC3)n2)cc1 [CL] | 256 | 218 |  | 
C[C@@H](O)[C@@H](CO)Nc1nccc(-c2c(-c3ccc(F)cc3)nc3occn23)n1 [CVII] | 63.8 | 112 |  | 
COc1ccc(CCNc2nccc(-c3c(-c4ccc(F)cc4)nc4occn34)n2)cc1 [CXIII] | 7.88 | 127 |  | 
Oc1ccc(CCNc2nccc(-c3c(-c4ccc(F)cc4)nc4occn34)n2)cc1 [CXII] | 3.45 | 13.1 |  | 

SMILES | IC50 (p38α) [nM] | IC50 [1, 2] [nM] | IC50 ([1]; LPS 10 μg/ml, 18 hours, read-out: TNFα (THP-1) IC50) [nM] | IC50 ([1]; Homo sapiens, THP-1, 18 h, read-out: TNFα (THP-1) IC50 (nM)) [nM]
Fc1ccc(-c2nc3occn3c2-c2ccnc(NCc3nc4ccccc4[nH]3)n2)cc1 [CXIV] | 183 | 913 |  | 
Fc1ccc(CNc2nccc(-c3c(-c4ccc(F)cc4)nc4sccn34)n2)cc1 [CXLIV] | 54.1 | 182 |  | 
Fc1ccc(-c2nc3sccn3c2-c2ccnc(OCc3ccccc3)n2)cc1 [CXLIX] | 152 | 391 |  | 
OC1(CNc2nccc(-c3c(-c4ccc(F)cc4)nc4occn34)n2)CCCCC1 [CXVII] | 20.6 | 47 |  | 
Fc1ccc(-c2nc3occn3c2-c2ccnc(NCCN3CCCCC3)n2)cc1 [CXVI] | 236 | 376 |  | 
Nc1ccc(CCNc2nccc(-c3c(-c4ccc(F)cc4)nc4occn34)n2)cc1 [CXV] | 1.73 | 41.9 |  | 
OC1(CNc2nccc(-c3c(-c4ccc(F)cc4)nc4occn34)n2)CCCc2ccccc21 (centres unmarked) [CXXIII] | 27.2 | 99 |  | 
NS(=O)(=O)c1ccc(CCNc2nccc(-c3c(-c4ccc(F)cc4)nc4occn34)n2)cc1 [CXXII] | 5.44 | 22.7 |  | 
Fc1ccc(CCNc2nccc(-c3c(-c4ccc(F)cc4)nc4occn34)n2)cc1 [CXXI] | 11.2 | 26.4 |  | 
NC(=O)[C@H](Cc1ccccc1)Nc1nccc(-c2c(-c3ccc(F)cc3)nc3occn23)n1 [CXXVIII] | 71 | 1390 |  | 
CC(C)(Nc1nccc(-c2c(-c3ccc(F)cc3)nc3occn23)n1)C(O)c1ccccc1 (centres unmarked) [CXXVII] | 28.5 | 249 |  | 
Fc1ccc(-c2nc3occn3c2-c2ccnc(NCCN3CCN(Cc4ccccc4)CC3)n2)cc1 [CXXV] | 258 | 1360 |  | 
CS(=O)(=O)c1nccc(-c2c(-c3ccccc3)nc3sccn23)n1 [CXXXII] | 373 | > 10000 |  | 
OC(CNc1nccc(-c2c(-c3ccc(F)cc3)nc3occn23)n1)COc1ccccc1 (centres unmarked) [CXX] | 36.5 | 171 |  | 
OC1CCCCC1Nc1nccc(-c2c(-c3ccc(F)cc3)nc3occn23)n1 (centres unmarked) [CX] | 21.8 | 15 |  | 
Fc1ccc(-c2nc3occn3c2-c2ccnc(NCCCN3CCOCC3)n2)cc1 [LIII] | 361 | 236 |  | 
OC(CNc1nccc(-c2c(-c3ccc(F)cc3)nc3occn23)n1)c1ccccc1 (centres unmarked) [LII] | 54.5 |  | 60.9 | 
O[C@H]1CC[C@H](Nc2nccc(-c3c(-c4ccc(F)cc4)nc4occn34)n2)CC1 [LIX] | 1.79 | 55.4 |  | 
O[C@H]1Cc2ccccc2[C@H]1Nc1nccc(-c2c(-c3ccc(F)cc3)nc3occn23)n1 [LVIII] | 97.9 | 1190 |  | 
OC(CNc1nccc(-c2c(-c3ccc(F)cc3)nc3occn23)n1)c1ccccc1 (centres unmarked) [LVII] | 8.96 | 58.5 |  | 
